# Reference: patent US11643438B2, “Antimicrobial peptides and methods of use” (priority 2018, dated 2023)
# Entries after “also recorded” stand apart in the source; their conditions may differ. Where two headings read alike, the source gives them in different places.
# Assays:
# [1] = test system: Candida albicans SC5314; experiment: Ex vivo model of fungal keratitis (porcine cornea); details: for antifungal activity (fungal growth/infection), in words: 0.1% 118A, 2% fluconazole, 5% natamycin, FIG. 11; for CFU: 118A 0.1% (1 mg/ml), natamycin 5% (50 mg/ml), fluconazole 2% (20 mg/ml)
# [2] = test system: Aspergillus fumigatus NRRL5109; experiment: Ex vivo model of fungal keratitis (porcine cornea); details: for antifungal activity (fungal growth/infection), in words: Aspergillus fumigatus NRRL 5109, 0.1% 118A, 2% fluconazole, 5% natamycin, FIG. 13; for CFU: Aspergillus fumigatus NRRL5109, 118A 0.1% (1 mg/ml), natamycin 5% (50 mg/ml), fluconazole 2% (20 mg/ml)
# [3] = test system: C. albicans SC5314 Flu^R; experiment: Ex vivo model of fungal keratitis (porcine cornea); set-up: species or system Candida albicans; details: C. albicans SC5314 Flu^R; 118A 0.1% (1 mg/ml), natamycin 5% (50 mg/ml), fluconazole 2% (20 mg/ml)
# [4] = test system: Aspergillus terreus 191A6; experiment: Antifungal MIC80/MFC assay, fungal pathogen panel
# [5] = test system: Candida parapsilosis ATCC 22019 (Y-12969); experiment: Antifungal MIC80/MFC assay, fungal pathogen panel; details: Lodderomyces parapsilosis, ATCC22019
# [6] = test system: Curvularia lunata NRRL6409; experiment: Antifungal MIC80/MFC assay, fungal pathogen panel
# [7] = test system: Fusarium solani 243G2; experiment: Antifungal MIC80/MFC assay, fungal pathogen panel
# [8] = test system: Aspergillus flavus NRRL485; experiment: Antifungal MIC80/MFC assay, fungal pathogen panel
# [9] = test system: Mucor circinelloides 235C7; experiment: Antifungal MIC80/MFC assay, fungal pathogen panel
# [10] = test system: Candida tropicalis ATCC750 (Y-12699); experiment: Antifungal MIC80/MFC assay, fungal pathogen panel; details: Candida tropicalis, ATCC750
# [11] = test system: Aspergillus fumigatus NRRL6113; experiment: Antifungal MIC80/MFC assay, fungal pathogen panel
# [12] = test system: Candida albicans ATCC 10231; experiment: Antifungal MIC80/MFC assay, fungal pathogen panel; details: ATCC10231
# [13] = test system: Hamigera insecticola NRRL35442; experiment: Antifungal MIC80/MFC assay, fungal pathogen panel
# [14] = test system: Aspergillus fumigatus MYA 3627; experiment: Antifungal MIC80/MFC assay, fungal pathogen panel; details: MYA3627
# [15] = test system: Paecilomyces lilacinus 165E10; experiment: Antifungal MIC80/MFC assay, fungal pathogen panel; details: Purpureocillium lilacinum, 165E10
# [16] = test system: Aspergillus fumigatus NRRL5109; experiment: Antifungal MIC80/MFC assay, fungal pathogen panel
# [17] = test system: Rhizopus oryzae FGSC 9543; experiment: Antifungal MIC80/MFC assay, fungal pathogen panel; details: Rhizopus arrhizus, FGSC9543
# [18] = test system: Cryptococcus neoformans H99; experiment: Antifungal MIC80/MFC assay, fungal pathogen panel
# [19] = test system: Candida krusei ATCC 6258 (Y-7179); experiment: Antifungal MIC80/MFC assay, fungal pathogen panel; details: Pichia kudriavzevii, ATCC6258
# [20] = test system: Aspergillus niger FGSC A732; experiment: Antifungal MIC80/MFC assay, fungal pathogen panel; details: Aspergillus niger, FGSCA732
# [21] = test system: Candida albicans SC5314; experiment: Antifungal MIC80/MFC assay, fungal pathogen panel
# [22] = test system: Alternaria tennuissiema; experiment: MIC/MFC against phytopathogenic (endophytic) fungi
# [23] = test system: P. glomerata; experiment: MIC/MFC against phytopathogenic (endophytic) fungi
# [24] = test system: Fusarium oxysporum; experiment: MIC/MFC against phytopathogenic (endophytic) fungi
# [25] = test system: Alternaria brassicicola; experiment: MIC/MFC against phytopathogenic (endophytic) fungi
# [26] = test system: Mycosphaerella populorum; experiment: MIC/MFC against phytopathogenic (endophytic) fungi; details: Sphaerulina musiva
# [27] = test system: Alternaria brassicae; experiment: MIC/MFC against phytopathogenic (endophytic) fungi
# [28] = test system: Fusarium tricinctum; experiment: MIC/MFC against phytopathogenic (endophytic) fungi
# [29] = test system: Nodulosporium spp.; experiment: MIC/MFC against phytopathogenic (endophytic) fungi
compound,measurement,setting,value
"C[C@@H]1C/C=C/C=C/C=C/C=C/[C@H](O[C@@H]2O[C@H](C)[C@@H](O)[C@H](N)[C@@H]2O)C[C@@H]2O[C@](O)(C[C@@H](O)C[C@H]3O[C@@H]3/C=C/C(=O)O1)C[C@H](O)[C@H]2C(=O)O [Natamycin, natamycin]","antifungal activity (fungal growth/infection), in words",[1],inhibited the growth; also recorded: reduced the infection
same,CFU,[1],0 CFU
same,"antifungal activity (fungal growth/infection), in words",[2],inhibited the growth; also recorded: reduced the fungal burden
same,CFU,[2],0 CFU
same,CFU,[3],0 CFU
"CC[C@H](C)C[C@H](C)CCCCCCCCC(=O)N[C@H]1C[C@@H](O)[C@@H](NCCN)NC(=O)[C@@H]2[C@@H](O)CCN2C(=O)[C@H]([C@H](O)CCN)NC(=O)[C@H]([C@H](O)[C@@H](O)c2ccc(O)cc2)NC(=O)[C@@H]2C[C@@H](O)CN2C(=O)[C@H]([C@@H](C)O)NC1=O [CASP, caspofungin]",MFC,[4],> 10 µM
same,MIC80,[4],0.125 µM
same,MFC,[5],1.25 µM
same,MIC80,[5],0.3 µM
same,MFC,[6],5 µM
same,MIC80,[6],5 µM
same,MFC,[7],> 10 µM
same,MIC80,[7],0.15 µM
same,MFC,[8],> 10 µM
same,MIC80,[8],> 10 µM
same,MFC,[9],> 10 µM
same,MIC80,[9],> 10 µM
same,MFC,[10],0.15 µM
same,MIC80,[10],0.03 µM
same,MFC,[11],> 10 µM
same,MIC80,[11],> 10 µM
same,MFC,[12],5 µM
same,MIC80,[12],0.03 µM
same,MFC,[13],> 10 µM
same,MIC80,[13],0.06 µM
same,MFC,[14],> 10 µM
same,MIC80,[14],0.07 µM
same,MFC,[15],> 10 µM
same,MIC80,[15],> 10 µM
same,MFC,[16],> 10 µM
same,MIC80,[16],> 10 µM
same,MFC,[17],> 10 µM
same,MIC80,[17],> 10 µM
same,MFC,[18],> 10 µM
same,MIC80,[18],> 10 µM
same,MFC,[19],0.3 µM
same,MIC80,[19],0.15 µM
same,MFC,[20],> 10 µM
same,MIC80,[20],0.06 µM
same,MFC,[21],0.625 µM
same,MIC80,[21],0.03 µM
"CCC(C)n1ncn(-c2ccc(N3CCN(c4ccc(OCC5COC(Cn6cncn6)(c6ccc(Cl)cc6Cl)O5)cc4)CC3)cc2)c1=O (stereo not shown) [ITC, itraconazole]",MFC,[4],2.5 µM
same,MIC80,[4],0.6 µM
same,MFC,[5],5 µM
same,MIC80,[5],0.6 µM
same,MFC,[6],5 µM
same,MIC80,[6],2.5 µM
same,MFC,[7],5 µM
same,MIC80,[7],2.5 µM
same,MFC,[8],0.6 µM
same,MIC80,[8],0.15 µM
same,MFC,[9],> 10 µM
same,MIC80,[9],10 µM
same,MFC,[10],> 10 µM
same,MIC80,[10],0.6 µM
same,MFC,[11],> 10 µM
same,MIC80,[11],1.25 µM
same,MFC,[12],> 10 µM
same,MIC80,[12],0.06 µM
same,MFC,[13],1.25 µM
same,MIC80,[13],0.3 µM
same,MFC,[14],> 10 µM
same,MIC80,[14],5 µM
same,MFC,[15],1.25 µM
same,MIC80,[15],2.5 µM
same,MFC,[16],10 µM
same,MIC80,[16],1.25 µM
same,MFC,[17],0.6 µM
same,MIC80,[17],0.6 µM
same,MFC,[18],> 10 µM
same,MIC80,[18],0.6 µM
same,MFC,[19],2.5 µM
same,MIC80,[19],0.6 µM
same,MFC,[20],5 µM
same,MIC80,[20],2.5 µM
same,MFC,[21],> 10 µM
same,MIC80,[21],0.125 µM
"OC(Cn1cncn1)(Cn1cncn1)c1ccc(F)cc1F [Fluconazole, fluconazole]","antifungal activity (fungal growth/infection), in words",[1],reduced the infection
same,CFU,[1],13.7 ± 19.3 CFU
same,"antifungal activity (fungal growth/infection), in words",[2],did not inhibit the growth
same,"antifungal activity (fungal growth/infection), in words",[2]; listed as fluconazole,unable to fully inhibit the fungus
same,CFU,[2],2.0 ± 1.0 × 10^4 CFU
same,CFU,[3],2.2 ± 0.9 × 10^5 CFU
"N#Cc1c[nH]cc1-c1cccc2c1OC(F)(F)O2 [Fludioxonil, fludioxonil]",MFC,[22],1.25 µM
same,MIC,[22],1.25 µM
same,MFC,[23],> 20 µM
same,MIC,[23],> 20 µM
same,MIC,"[23]; P. glomerata, […]",no activity in the range tested
same,MFC,[24],> 20 µM
same,MIC,[24],5 µM
same,MFC,[25],> 20 µM
same,MIC,[25],1.25 µM
same,MFC,[26],> 20 µM
same,MIC,[26],1.25 µM
same,MFC,[27],2.5 µM
same,MIC,[27],0.625 µM
same,MFC,[28],> 20 µM
same,MIC,[28],1.25 µM
same,MFC,[29],> 20 µM
same,MIC,[29],0.625 µM
